Reference: patent publication US12303509B2, “Compounds for the treatment of BRAF-associated diseases and disorders” (Pfizer Inc., priority 2020, dated 2025)
Counter-ions that a name gives are not always drawn. Like-named read-outs stand apart in the source and are kept apart here.

Assays:
[1] = target: full-length FLAG-tagged B-Raf(V600E) (Homo sapiens (Human), UniProt P15056, V600E); experiment: BRAF V600E enzyme assay (TR-FRET competitive displacement); format: binding
In short: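 Displacement of 50 nM Tracer 1710 from 5 nM full-length N-terminally FLAG-tagged B-Raf(V600E), detected by TR-FRET with 0.5 nM Eu anti-FLAG antibody, in 25 mM HEPES pH 7.4, 10 mM MgCl2, 2% DMSO; 60 min at ~22 °C. Compounds 11-point, 3-fold from 10 μM; IC50 from 4-parameter fit at 50 POC.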

A375 cells = experiment: Cellular phospho-ERK inhibition assay in A375 cells; format: cell-based; settings: Homo sapiens, A-375, A375 cells (head prints A357), 2 hours treatment, read-out: A357 cell IC50
In short: (§1)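 A375 (DMEM) or H1755 (RPMI) cells in 10% FBS treated 2 h at 37 °C with 9-point series, 66 pM–10 μM, 0.25% DMSO. Phospho-ERK1/2 (Thr202/Tyr204) measured by In Cell Western, normalised to GAPDH and to DMSO and 10 μM binimetinib controls; IC50 by 4-parameter fit.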

H1755 cells = experiment: Cellular phospho-ERK inhibition assay in H1755 cells; format: cell-based; settings: Homo sapiens, NCI-H1755, 2 hours treatment, read-out: H1755 Cell IC50
In short: as §1

[2] = MDR1 LLC-PK1 and BCRP MDCKII permeability assay: permeability coefficient (Papp); format: in vitro ADME
From the text: (§2) Final organic concentration in the assay was 1%.

P-gp (MDR1) = P-gp (MDR1) (Homo sapiens (Human), UniProt P08183); experiment: MDR1 LLC-PK1 permeability assay: efflux ratio; format: in vitro ADME; settings: pig
From the text: as §2

BCRP = BCRP (Homo sapiens (Human), UniProt Q9UNQ0); experiment: BCRP MDCKII permeability assay: efflux ratio; format: in vitro ADME; settings: dog
[3] = averaged IC50, TR-FRET tracer displacement, 60 min

Sequence of full-length FLAG-tagged B-Raf(V600E) (P15056 whole entry V600E): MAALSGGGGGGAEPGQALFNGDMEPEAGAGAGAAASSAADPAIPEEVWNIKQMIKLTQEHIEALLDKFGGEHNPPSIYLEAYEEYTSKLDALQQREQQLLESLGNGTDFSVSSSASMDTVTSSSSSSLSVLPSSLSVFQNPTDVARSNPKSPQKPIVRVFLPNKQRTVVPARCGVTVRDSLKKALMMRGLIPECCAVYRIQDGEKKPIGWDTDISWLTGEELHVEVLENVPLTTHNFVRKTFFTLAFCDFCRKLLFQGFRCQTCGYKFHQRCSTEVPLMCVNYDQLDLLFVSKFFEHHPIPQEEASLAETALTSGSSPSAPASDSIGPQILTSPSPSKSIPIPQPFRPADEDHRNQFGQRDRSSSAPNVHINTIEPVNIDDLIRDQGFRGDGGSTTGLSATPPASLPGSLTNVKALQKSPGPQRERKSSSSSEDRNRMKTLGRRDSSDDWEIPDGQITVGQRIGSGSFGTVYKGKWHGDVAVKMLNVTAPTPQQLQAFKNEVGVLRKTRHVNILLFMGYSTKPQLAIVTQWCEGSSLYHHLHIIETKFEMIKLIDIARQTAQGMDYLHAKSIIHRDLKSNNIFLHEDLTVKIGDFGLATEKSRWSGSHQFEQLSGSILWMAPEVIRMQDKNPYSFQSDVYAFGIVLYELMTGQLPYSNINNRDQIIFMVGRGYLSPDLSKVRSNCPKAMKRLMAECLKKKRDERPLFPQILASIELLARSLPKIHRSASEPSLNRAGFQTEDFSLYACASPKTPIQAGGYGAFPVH
Sequence of P-gp (MDR1) (P08183 whole entry, species assumed): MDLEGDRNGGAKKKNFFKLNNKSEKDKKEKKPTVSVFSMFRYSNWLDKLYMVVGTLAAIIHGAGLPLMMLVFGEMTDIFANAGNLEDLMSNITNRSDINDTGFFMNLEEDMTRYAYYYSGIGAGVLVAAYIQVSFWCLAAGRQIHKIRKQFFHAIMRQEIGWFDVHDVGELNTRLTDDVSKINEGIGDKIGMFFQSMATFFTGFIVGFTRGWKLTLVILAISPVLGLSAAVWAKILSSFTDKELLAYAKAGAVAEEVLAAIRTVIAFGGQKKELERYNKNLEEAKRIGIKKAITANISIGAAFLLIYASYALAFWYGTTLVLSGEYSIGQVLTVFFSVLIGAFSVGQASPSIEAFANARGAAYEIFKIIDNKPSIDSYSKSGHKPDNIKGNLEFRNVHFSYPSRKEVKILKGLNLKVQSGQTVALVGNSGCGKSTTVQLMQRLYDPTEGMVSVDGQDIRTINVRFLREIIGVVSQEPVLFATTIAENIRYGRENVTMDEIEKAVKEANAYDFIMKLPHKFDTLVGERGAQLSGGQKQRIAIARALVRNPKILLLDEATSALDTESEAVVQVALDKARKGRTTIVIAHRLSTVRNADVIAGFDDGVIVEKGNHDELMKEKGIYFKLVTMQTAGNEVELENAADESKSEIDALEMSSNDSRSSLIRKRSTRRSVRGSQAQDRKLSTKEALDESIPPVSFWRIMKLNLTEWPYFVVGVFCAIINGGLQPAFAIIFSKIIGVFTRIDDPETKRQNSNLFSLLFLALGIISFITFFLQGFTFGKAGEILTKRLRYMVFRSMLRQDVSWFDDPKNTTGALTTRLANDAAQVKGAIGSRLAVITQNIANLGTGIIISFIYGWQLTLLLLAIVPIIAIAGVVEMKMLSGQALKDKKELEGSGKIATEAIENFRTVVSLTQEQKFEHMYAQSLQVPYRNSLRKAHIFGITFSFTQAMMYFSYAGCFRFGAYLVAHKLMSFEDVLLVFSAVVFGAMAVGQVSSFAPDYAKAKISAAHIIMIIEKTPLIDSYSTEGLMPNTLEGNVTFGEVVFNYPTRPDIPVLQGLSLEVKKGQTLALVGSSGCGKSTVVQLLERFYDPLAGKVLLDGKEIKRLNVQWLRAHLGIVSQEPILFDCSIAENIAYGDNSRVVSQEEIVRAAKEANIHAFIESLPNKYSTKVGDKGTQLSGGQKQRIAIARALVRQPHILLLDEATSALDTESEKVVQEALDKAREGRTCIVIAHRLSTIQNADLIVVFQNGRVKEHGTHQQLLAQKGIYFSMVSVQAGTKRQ
Sequence of BCRP (Q9UNQ0 whole entry): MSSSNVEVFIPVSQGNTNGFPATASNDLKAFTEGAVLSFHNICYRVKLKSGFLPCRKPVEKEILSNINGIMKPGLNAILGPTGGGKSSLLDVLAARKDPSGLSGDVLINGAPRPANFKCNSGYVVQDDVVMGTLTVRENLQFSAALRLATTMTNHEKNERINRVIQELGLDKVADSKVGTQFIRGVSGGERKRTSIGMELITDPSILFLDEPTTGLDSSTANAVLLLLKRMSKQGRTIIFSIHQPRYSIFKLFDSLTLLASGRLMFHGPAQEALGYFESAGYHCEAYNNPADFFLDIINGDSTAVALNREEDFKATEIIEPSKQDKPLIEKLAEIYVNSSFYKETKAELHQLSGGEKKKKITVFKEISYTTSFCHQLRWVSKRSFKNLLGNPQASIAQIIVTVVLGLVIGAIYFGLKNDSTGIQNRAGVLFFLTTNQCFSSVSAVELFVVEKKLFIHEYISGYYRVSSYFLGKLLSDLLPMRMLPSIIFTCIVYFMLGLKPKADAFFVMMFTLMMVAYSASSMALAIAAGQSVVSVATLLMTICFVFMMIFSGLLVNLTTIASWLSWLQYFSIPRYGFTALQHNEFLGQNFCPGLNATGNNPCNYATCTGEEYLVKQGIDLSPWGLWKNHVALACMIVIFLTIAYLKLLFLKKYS

## Cn1cnc2ccc(Oc3c(F)ccc(NS(=O)(=O)N4CC[C@@H](OC(F)F)C4)c3Cl)c(Cl)c2c1=O [Example 60, (R)-N-(2-chloro-3-((5-chloro-3-methyl-4-oxo-3,4-dihydroquinazolin-6-yl)oxy)-4-fluorophenyl)-3-(difluoromethoxy)pyrrolidine-1-sulfonamide]
[1]
  IC50: 2 nM
A375 cells
  IC50: 7 nM
H1755 cells
  IC50: 61 nM
[2]
  Papp at 2 h, 1 µM: 18 ×10⁻⁶ cm/s
P-gp (MDR1)
  efflux ratio at 2 h, 1 µM: 3.1
BCRP
  efflux ratio at 2 h, 1 µM: 1.6

## Cc1c(Nc2c(F)c(F)cc(NS(=O)(=O)N3CC[C@@H](F)C3)c2Cl)ccc2ncn(C)c(=O)c12 [Example 35, (R)-N-(2-chloro-3-((3,5-dimethyl-4-oxo-3,4-dihydroquinazolin-6-yl)amino)-4,5-difluorophenyl)-3-fluoropyrrolidine-1-sulfonamide]
[1]; [3]
  IC50: 2 nM
A375 cells
  IC50: 21 nM
H1755 cells
  IC50: 163 nM
[2]
  Papp at 2 h, 1 µM: 31 ×10⁻⁶ cm/s
P-gp (MDR1)
  efflux ratio at 2 h, 1 µM: 1.5
BCRP
  efflux ratio at 2 h, 1 µM: 2.1

## [2H]C([2H])([2H])O[C@@H]1CCN(S(=O)(=O)Nc2ccc(F)c(Nc3ccc4ncn(C)c(=O)c4c3F)c2Cl)C1 [Example 54, (R)-N-(2-chloro-4-fluoro-3-((5-fluoro-3-methyl-4-oxo-3,4-dihydroquinazolin-6-yl)amino)phenyl)-3-(methoxy-d3)pyrrolidine-1-sulfonamide trifluoroacetate]
[1]; [3]
  IC50: 17 nM
A375 cells
  IC50: 4 nM
H1755 cells
  IC50: 33 nM
[2]
  Papp at 2 h, 1 µM: 31 ×10⁻⁶ cm/s
P-gp (MDR1)
  efflux ratio at 2 h, 1 µM: 3.6
BCRP
  efflux ratio at 2 h, 1 µM: 3

## Cn1cnc2ccc(Oc3c(F)ccc(NS(=O)(=O)N4CC[C@@H](OC(F)F)C4)c3Cl)c(F)c2c1=O [Example 66, (R)-N-(2-chloro-4-fluoro-3-((5-fluoro-3-methyl-4-oxo-3,4-dihydroquinazolin-6-yl)oxy)phenyl) 3-(difluoromethoxy)pyrrolidine-1-sulfonamide]
[1]
  IC50: 4 nM
A375 cells
  IC50: 6 nM
H1755 cells
  IC50: 44 nM
[2]
  Papp at 2 h, 1 µM: 25 ×10⁻⁶ cm/s
P-gp (MDR1)
  efflux ratio at 2 h, 1 µM: 2.2
BCRP
  efflux ratio at 2 h, 1 µM: 3.1

## Cc1c(Nc2c(F)ccc(NS(=O)(=O)N3CC[C@@H](F)C3)c2F)ccc2ncn(C)c(=O)c12 [Example 114, (R)-N-(3-((3,5-dimethyl-4-oxo-3,4-dihydroquinazolin-6-yl)amino)-2,4-difluorophenyl)-3-fluoropyrrolidine-1-sulfonamide trifluoroacetate]
[1]; [3]
  IC50: 16 nM
A375 cells
  IC50: 36 nM
H1755 cells
  IC50: 174 nM
[2]
  Papp at 2 h, 1 µM: 31 ×10⁻⁶ cm/s
P-gp (MDR1)
  efflux ratio at 2 h, 1 µM: 2.2
BCRP
  efflux ratio at 2 h, 1 µM: 5.2

## Cn1cnc2ccc(Oc3c(F)ccc(NS(=O)(=O)N4CCC(F)(F)C4)c3Cl)c(Cl)c2c1=O [Example 61, N-(2-chloro-3-((5-chloro-3-methyl-4-oxo-3,4-dihydroquinazolin-6-yl)oxy)-4-fluorophenyl)-3,3-difluoropyrrolidine-1-sulfonamide]
[1]
  IC50: 2 nM
A375 cells
  IC50: 25 nM
H1755 cells
  IC50: 194 nM
[2]
  Papp at 2 h, 1 µM: 29 ×10⁻⁶ cm/s
P-gp (MDR1)
  efflux ratio at 2 h, 1 µM: 2.2
BCRP
  efflux ratio at 2 h, 1 µM: 3.3

## Cc1c(Nc2c(F)ccc(NS(=O)(=O)N3CCC(F)(F)C3)c2Cl)ccc2ncn(C)c(=O)c12 [Example 93, N-(2-chloro-3-((3,5-dimethyl-4-oxo-3,4-dihydroquinazolin-6-yl)amino)-4-fluorophenyl)-3,3-difluoropyrrolidine-1-sulfonamide]
[1]; [3]
  IC50: 3 nM
A375 cells
  IC50: 60 nM
H1755 cells
  IC50: 195 nM
[2]
  Papp at 2 h, 1 µM: 33 ×10⁻⁶ cm/s
P-gp (MDR1)
  efflux ratio at 2 h, 1 µM: 1.4
BCRP
  efflux ratio at 2 h, 1 µM: 0.8

## Cc1c(Nc2c(F)ccc(NS(=O)(=O)N3C[C@@H](F)[C@@H](F)C3)c2Cl)ccc2ncn(C)c(=O)c12 [Example 90, (cis)-N-(2-chloro-3-((3,5-dimethyl-4-oxo-3,4-dihydroquinazolin-6-yl)amino)-4-fluorophenyl)-3,4-difluoropyrrolidine-1-sulfonamide]
[1]; [3]
  IC50: 9 nM
A375 cells
  IC50: 49 nM
H1755 cells
  IC50: 127 nM
[2]
  Papp at 2 h, 1 µM: 31 ×10⁻⁶ cm/s
P-gp (MDR1)
  efflux ratio at 2 h, 1 µM: 2.3
BCRP
  efflux ratio at 2 h, 1 µM: 3.5

## Cn1cnc2ccc(Nc3c(F)c(F)cc(NS(=O)(=O)N4CCCC4)c3F)c(Cl)c2c1=O [Example 43, N-(3-((5-chloro-3-methyl-4-oxo-3,4-dihydroquinazolin-6-yl)amino)-2,4,5-trifluorophenyl)pyrrolidine-1-sulfonamide trifluoroacetate]
[1]; [3]
  IC50: 1 nM
A375 cells
  IC50: 4 nM
H1755 cells
  IC50: 45 nM
[2]
  Papp at 2 h, 1 µM: 32 ×10⁻⁶ cm/s
P-gp (MDR1)
  efflux ratio at 2 h, 1 µM: 1.8
BCRP
  efflux ratio at 2 h, 1 µM: 1.9

## Cc1c(Nc2cc(Cl)cc(NS(=O)(=O)N3CC[C@@H](F)C3)c2F)ccc2ncn(C)c(=O)c12 [Example 103, (R)-N-(5-chloro-3-((3,5-dimethyl-4-oxo-3,4-dihydroquinazolin-6-yl)amino)-2-fluorophenyl)-3-fluoropyrrolidine-1-sulfonamide]
[1]; [3]
  IC50: 5 nM
A375 cells
  IC50: 118 nM
H1755 cells
  IC50: 365 nM
[2]
  Papp at 2 h, 1 µM: 25 ×10⁻⁶ cm/s
P-gp (MDR1)
  efflux ratio at 2 h, 1 µM: 3.2
BCRP
  efflux ratio at 2 h, 1 µM: 3.5

## Cc1c(Oc2c(F)ccc(NS(=O)(=O)N3CCCC3)c2Cl)ccc2ncn(C)c(=O)c12 [Example 69, N-(2-chloro-3-((3,5-dimethyl-4-oxo-3,4-dihydroquinazolin-6-yl)oxy)-4-fluorophenyl)pyrrolidine-1-sulfonamide]
[1]
  IC50: 7 nM
A375 cells
  IC50: 22 nM
H1755 cells
  IC50: 88 nM
[2]
  Papp at 2 h, 1 µM: 25 ×10⁻⁶ cm/s
P-gp (MDR1)
  efflux ratio at 2 h, 1 µM: 0.8
BCRP
  efflux ratio at 2 h, 1 µM: 0.9

## Cn1cnc2ccc(Oc3c(F)ccc(NS(=O)(=O)N4CC[C@H](F)C4)c3Cl)c(Cl)c2c1=O [Example 107, (S)-N-(2-chloro-3-((5-chloro-3-methyl-4-oxo-3,4-dihydroquinazolin-6-yl)oxy)-4-fluorophenyl)-3-fluoropyrrolidine-1-sulfonamide]
[1]; [3]
  IC50: 1 nM
A375 cells
  IC50: 8 nM
H1755 cells
  IC50: 116 nM
[2]
  Papp at 2 h, 1 µM: 30 ×10⁻⁶ cm/s
P-gp (MDR1)
  efflux ratio at 2 h, 1 µM: 2.7
BCRP
  efflux ratio at 2 h, 1 µM: 1.9

## CCN(C)S(=O)(=O)Nc1ccc(F)c(Nc2ccc3ncn(C)c(=O)c3c2F)c1Cl [Example 4, N-(2-chloro-4-fluoro-3-((5-fluoro-3-methyl-4-oxo-3,4-dihydroquinazolin-6-yl)amino)phenyl)-(N-ethyl-N-methyl)-sulfamide]
[1]; [3]
  IC50: 32 nM
A375 cells
  IC50: 19 nM
H1755 cells
  IC50: 80 nM
[2]
  Papp at 2 h, 1 µM: 27 ×10⁻⁶ cm/s
P-gp (MDR1)
  efflux ratio at 2 h, 1 µM: 1.6
BCRP
  efflux ratio at 2 h, 1 µM: 2.1

## Cn1cnc2ccc(Oc3c(F)ccc(NS(=O)(=O)N4CCC(F)(F)C4)c3Cl)c(F)c2c1=O [Example 63, N-(2-chloro-4-fluoro-3-((5-fluoro-3-methyl-4-oxo-3,4-dihydroquinazolin-6-yl)oxy)phenyl)-3,3-difluoropyrrolidine-1-sulfonamide]
[1]
  IC50: 1 nM
A375 cells
  IC50: 7 nM
H1755 cells
  IC50: 84 nM
[2]
  Papp at 2 h, 1 µM: 39 ×10⁻⁶ cm/s
P-gp (MDR1)
  efflux ratio at 2 h, 1 µM: 1.7
BCRP
  efflux ratio at 2 h, 1 µM: 3.6

## Cn1cnc2ccc(Oc3c(F)ccc(NS(=O)(=O)N4CC5CC5C4)c3Cl)c(Cl)c2c1=O (stereo not drawn) [Example 108, N-(2-chloro-3-((5-chloro-3-methyl-4-oxo-3,4-dihydroquinazolin-6-yl)oxy)-4-fluorophenyl)-3-azabicyclo[3.1.0]hexane-3-sulfonamide]
[1]; [3]
  IC50: 1 nM
A375 cells
  IC50: 14 nM
H1755 cells
  IC50: 1590 nM
[2]
  Papp at 2 h, 1 µM: 25 ×10⁻⁶ cm/s
P-gp (MDR1)
  efflux ratio at 2 h, 1 µM: 1.2
BCRP
  efflux ratio at 2 h, 1 µM: 0.8
